Assay results taken from patent US11873287B2, “Piperidine-2,6-dione derivatives and ulcerative colitis treating” (TIANJIN HEMAY PHARMACEUTICAL SCI-TECH CO., LTD, priority 2016, dated 2024).
“Also recorded” adds a separate entry of the source.

Experiments:
ICR mice = assay: Acute toxicity experiment of single oral administration in mice; type: in vivo; conditions: 1000 mg/Kg single oral dose
How it was run: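 Fasted ICR mice (19–21 g, 3 male and 3 female per group) received a single oral dose of 1000 mg/Kg, given first to one of each sex, then to the remaining four. Acute signs were scored over the first 15 min, then state, deaths and daily body weight over 7 days.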

[1] = tested on: DSS-Induced inflammatory Bowel Disease Models in Mice; assay: DSS-induced inflammatory bowel disease model in mice (Biological Example 2, 0.9% DSS); type: in vivo, C57BL/6 mice; conditions: for body weights during the whole experiment compared with model control group: 0.9% DSS; for colon length (Mean ± SD): 0.9% DSS 5 days, end of experiment
Procedure: 66 female C57BL/6 mice were randomly divided into 6 groups: normal control group, model control group, cyclosporine A (25 mg/Kg), 5-ASA (100 mg/Kg), the compound in Example 27 (30 mg/Kg) and the compound in Example 26 (30 mg/Kg). There were 11 mice in each group (see Table 4 below). Besides the normal control group, the remaining groups were induced with 0.9% DSS for 5 days. The day of induction was the first day of the test and then normal drinking water was administered for 4 days. The normal control group was administered with normal drinking water all the time. The model control group, 5-ASA group, the compound in Example 27 group and the compound in Example 26 group were administered with 1% CMC-Na or the corresponding drug every day from the first day of the experiment to the end of the experiment. The cyclosporine A group was administered with cyclosporine A every day from the first day of experiment to the fifth day of the experiment and was administered with the corresponding volume of 1% CMC-Na every day from the sixth day to the end of the experiment due to toxicity. The normal control group was administered with the corresponding volume of 1% CMC-Na every day. The animals were treated and the indexes were tested at the end of the experiment.
The compound in Example 27, the compound in Example 26, 5-ASA or Cyclosporine A: Preparation Method: Suspended with 1% CMC-Na, and prepared when it was needed.
One-Way Anova test was performed with SPSS 17.0. The colony length was analyzed statistically between groups.

[2] = tested on: DSS-Induced Inflammatory Bowel Disease Models in Mice; assay: DSS-induced inflammatory bowel disease model in mice (Biological Example 1, 1.6% DSS); type: in vivo, C57BL/6J mice; conditions: for colon length (Mean ± SD): 1.6% DSS 8 days, end of experiment
Procedure: Experimental animals: C57BL/6J mice, weight of 16-18 g
Piperidine-2,6-dione derivatives, 5-ASA or Cyclosporine A: Preparation Method: Suspended with 1% CMC-Na, and prepared when it was needed.
54 C57BL/6 mice were randomly divided into 6 groups: normal control group, model control group, Example 27 groups consisting of dose of 5 mg/Kg group, dose of 10 mg/Kg group and dose of 20 mg/Kg group, and cyclosporine A-25 mg/Kg group. There were 9 mice in each group (see Table 2 below). Besides the normal control group, the remaining groups were induced with 1.6% DSS for 8 days. Normal drinking water was then administered for 3 days. The normal control group was administered with normal drinking water all the time. The model control group and the compound in Example 27 group were administered with 1% CMC-Na or the corresponding drug every day until the end of the experiment. The cyclosporine A group was administered with the corresponding drug every day from the first day of experiment to the eighth day of the experiment and was administered with the corresponding volume of 1% CMC-Na every day from the ninth day to the end of the experiment due to toxicity. At the end of the experiment, the animals were treated and the indexes such as the colon length were tested.
The homogeneity of data variance test was performed by Spss13.0. Where the variance of data was homogeneous (P>0.05), one-way ANOVA LSD test was performed. Where the variance was inhomogeneous (P≤0.05), the data were treated with extraction of a root and homogeneity of data variance test was further performed. Where the variance of data was homogeneous (P>0.05), one-way ANOVA LSD test was performed. Where the variance was still inhomogeneous (P≤0.05), then Dunnett's multiple comparison (parameter method) was performed.

[3] = tested on: DSS-Induced inflammatory Bowel Disease Models in Mice; assay: DSS-induced inflammatory bowel disease model in mice (Biological Example 5, 1.3% DSS); type: in vivo, C57BL/6 mice; conditions: 30 mg/Kg i.g. Q.D, 1.3% DSS days 0-5
Procedure: 40 healthy female C57BL/6 mice having weight of 16-19 g were randomly divided into 4 groups in accordance with weight. There were 10 mice in each group (see Table 6 below). The first day of the experiment was recorded as Day 0. The administration regimen and induction regimen were detailed in Table 6. The change in weight of experimental animals was recorded every day. […] Samples of animal colonic tissues were obtained to measure the length. One-way ANOVA analysis of mice weights was performed by SPSS22. Statistical analyses between groups were performed. Mann-Whitney U non-parametric test was performed on the length of colon.
The experimental method used in the present biological example is identical to those in Biological Example 3.
One-way ANOVA analysis of mice body weights and colonic weights per length was performed by SPSS22. Statistical analyses between groups were performed.
Calculation Formula of Inhibitory Rate of Colonic Reduction: (Length of Colon in Administration Group−Length of Colon in Model Group)/(Length of Colon in Blank Group−Length of Colon in Model Group)

COCCCN1C(=O)CCC(N2C(=O)c3cccc(N)c3C2=O)C1=O (centres unmarked) [Example 26, 4-amino-2-(1-(3-methoxypropyl)-2,6-dioxopiperidin-3-yl)isoindolin-1,3-dione]
Daily Body Weight of Tested Female Mice (Mean ± SD) (ICR mice; Day 1): 18.0 ± 0.7 g | Daily Body Weight of Tested Male Mice (Mean ± SD) (ICR mice; Day 1): 18.7 ± 0.8 g | Daily Body Weight of Tested Female Mice (Mean ± SD) (ICR mice; Day 2): 21.9 ± 0.3 g | Daily Body Weight of Tested Male Mice (Mean ± SD) (ICR mice; Day 2): 23.4 ± 0.5 g | Daily Body Weight of Tested Female Mice (Mean ± SD) (ICR mice; Day 3): 22.1 ± 0.5 g | Daily Body Weight of Tested Male Mice (Mean ± SD) (ICR mice; Day 3): 25.0 ± 0.6 g | Daily Body Weight of Tested Female Mice (Mean ± SD) (ICR mice; Day 4): 22.4 ± 0.2 g | Daily Body Weight of Tested Male Mice (Mean ± SD) (ICR mice; Day 4): 26.6 ± 1.4 g | Daily Body Weight of Tested Female Mice (Mean ± SD) (ICR mice; Day 5): 22.7 ± 0.3 g | Daily Body Weight of Tested Male Mice (Mean ± SD) (ICR mice; Day 5): 27.3 ± 1.3 g | Daily Body Weight of Tested Female Mice (Mean ± SD) (ICR mice; Day 6): 22.6 ± 0.3 g | Daily Body Weight of Tested Male Mice (Mean ± SD) (ICR mice; Day 6): 28.3 ± 1.3 g | Daily Body Weight of Tested Female Mice (Mean ± SD) (ICR mice; Day 7): 22.4 ± 0.2 g | Daily Body Weight of Tested Male Mice (Mean ± SD) (ICR mice; Day 7): 28.8 ± 1.4 g | Summary of toxic response of tested animals in 7 Days (ICR mice; Female): Abnormality was not observed in 7 days of the test | Summary of toxic response of tested animals in 7 Days (ICR mice; Male): Abnormality was not observed in 7 days of the test | body weights during the whole experiment compared with model control group ([1]; 30 mg/Kg i.g. Q.D): higher than that of the model control group | colon length (Mean ± SD) ([1]; 30 mg/Kg i.g. Q.D): 6.3 ± 0.5 cm

Nc1ccc(O)c(C(=O)O)c1 [Example 5-ASA, 5-aminosalicylic acid, reference compound]
colon length (Mean ± SD) ([1]; 100 mg/Kg i.g. Q.D): 6.1 ± 0.4 cm

COCCN1C(=O)CCC(N2C(=O)c3cccc(N)c3C2=O)C1=O (centres unmarked) [Example 27, 4-amino-2-(1-(2-methoxyethyl)-2,6-dioxopiperidin-3-yl)isoindolin-1,3-dione]
Disease Activity Index (DAI) ([2]; 5 mg/Kg i.g. Q.D, 1.6% DSS): better than the DAI of model control group | relief of reduction in colon length in the model ([2]; 5 mg/Kg i.g. Q.D, 1.6% DSS): certain relief effects | colon length (Mean ± SD) ([2]; 5 mg/Kg i.g. Q.D): 6.1 ± 0.4 cm | Disease Activity Index (DAI) ([2]; 10 mg/Kg i.g. Q.D, 1.6% DSS): better than the DAI of model control group | colon length (Mean ± SD) ([2]; 10 mg/Kg i.g. Q.D): 6.2 ± 0.4 cm | Disease Activity Index (DAI) ([2]; 20 mg/Kg i.g. Q.D, 1.6% DSS): equivalent to the DAI of the normal control group and cyclosporine A group; also recorded: better than the DAI of model control group | body weight of the animals during the experiment ([2]; 20 mg/Kg i.g. Q.D, 1.6% DSS): continuous increase trend | relief of reduction in colon length in the model ([2]; 20 mg/Kg i.g. Q.D, 1.6% DSS): significant relief effects | colon length (Mean ± SD) ([2]; 20 mg/Kg i.g. Q.D): 6.4±0.4 cm | Length (cm, Mean ± SD) of colon [3]: 6.7 ± 0.4 cm | inhibition in vivo at 30 mg/kg ([3]; Mus musculus, po, read-out: Inhibitory Rate of Colonic Reduction): 81.8% | body weights during the whole experiment compared with model control group ([1]; 30 mg/Kg i.g. Q.D): higher than that of the model control group | colon length (Mean ± SD) ([1]; 30 mg/Kg i.g. Q.D): 6.3 ± 0.5 cm
